In US12043599B2, “Herbicidal compounds” (SYNGENTA PARTICIPATIONS AG, priority 2018, dated 2024):

How the values were obtained:
Assay type in all cases: in vivo
Conditions in all cases: 250 g/h, evaluated after 13 days
Avena fatua (AVEFA) [1] = test: Pre-emergence herbicidal glasshouse test, percentage damage
Summary of the method: (§1)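 Five-point damage scores (5=80-100%, 1=0-19%) were recorded 13 days after application of 250 g/h. Treatment was pre-emergence (1 day after sowing) or post-emergence (8 days), and plants were kept at 24/16 °C, 14 h light, 65% humidity with twice-daily watering.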

Lolium perenne (LOLPE) [2] = test: as above
Summary of the method: as §1

[3] = system: Echinochloa crus-galli (ECHCG); test: as above
Summary of the method: as §1

Setaria faberi (SETFA) [4] = test: as above
Summary of the method: as §1

[5] = system: Alopecurus myosuroides (ALOMY); test: as above
Summary of the method: as §1

Avena fatua (AVEFA) [6] = test: Post-emergence herbicidal glasshouse test, percentage damage
Summary of the method: as §1

Lolium perenne (LOLPE) [7] = test: as above
Summary of the method: as §1

[8] = system: Echinochloa crus-galli (ECHCG); test: as above
Summary of the method: as §1

[9] = system: Alopecurus myosuroides (ALOMY); test: as above
Summary of the method: as §1

Setaria faberi (SETFA) [10] = test: as above
Summary of the method: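 Percentage damage was scored 13 days after treatment on a five-point scale (1=0-19% to 5=80-100%). Treatments were post-emergence sprays on 8-day-old wheat, barley and SETFA plants in a glasshouse (24/16 °C day/night, 14 h light, 65% humidity), using acetone/water 50:50 with 0.5% Tween 20 at the stated rates. Wheat additionally received cloquintocet-mexyl safener at 50 g/ha.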

| Compound | AVEFA PRE percentage damage (five point scale) (Avena fatua (AVEFA) [1]) | LOLPE PRE percentage damage (five point scale) (Lolium perenne (LOLPE) [2]) | ECHCG PRE percentage damage (five point scale) [3] | SETFA PRE percentage damage (five point scale) (Setaria faberi (SETFA) [4]) | ALOMY PRE percentage damage (five point scale) [5] | AVEFA POST percentage damage (five point scale) (Avena fatua (AVEFA) [6]) | LOLPE POST percentage damage (five point scale) (Lolium perenne (LOLPE) [7]) | ECHCG POST percentage damage (five point scale) [8] | ALOMY POST percentage damage (five point scale) [9] | SETFA POST percentage damage (five point scale) (Setaria faberi (SETFA) [10]) |
| --- | --- | --- | --- | --- | --- | --- | --- | --- | --- | --- |
| CC#Cc1cc(C)c(C2C(=O)CC3(CCN(C(=O)C4CC4)CC3)CC2=O)c(C)c1 [Compound A8, 3-(cyclopropanecarbonyl)-9-(2,6-dimethyl-4-prop-1-ynyl-phenyl)-3-azaspiro[5.5]undecane-8,10-dione] | 5 (5=80-100%) | 5 (5=80-100%) | 5 (5=80-100%) | 5 (5=80-100%) | 5 (5=80-100%) | 5 (5=80-100%) | 5 (5=80-100%) | 5 (5=80-100%) | 5 (5=80-100%) | 5 (5=80-100%) |
| CC#Cc1cc(C)c(C2=C(OC(=O)C(C)(C)C)CC3(CCN(C(=O)N(C)C(=O)C(C)(C)C)CC3)CC2=O)c(C)c1 [Compound P54] | 4 (4=60-79%) | 5 (5=80-100%) | 5 (5=80-100%) | 5 (5=80-100%) | 4 (4=60-79%) | 4 (4=60-79%) | 5 (5=80-100%) | 5 (5=80-100%) | 5 (5=80-100%) | 5 (5=80-100%) |
| CC#Cc1cc(C)c(C2C(=O)CC3(CCN(C(=O)NC(=O)c4ccc(C#N)cn4)CC3)CC2=O)c(C)c1 [Compound A160] | 4 (4=60-79%) | 3 (3=40-59%) | 4 (4=60-79%) | 5 (5=80-100%) | 2 (2=20-39%) | 5 (5=80-100%) | 5 (5=80-100%) | 4 (4=60-79%) | 4 (4=60-79%) | 5 (5=80-100%) |
| CC#Cc1cc(C)c(C2C(=O)CC3(CCN(C(=O)Cc4csc(C(F)F)n4)CC3)CC2=O)c(C)c1 [Compound A194] | 5 (5=80-100%) | 5 (5=80-100%) | 5 (5=80-100%) | 5 (5=80-100%) | 4 (4=60-79%) | 5 (5=80-100%) | 5 (5=80-100%) | 5 (5=80-100%) | 4 (4=60-79%) | 5 (5=80-100%) |
| CC#Cc1cc(C)c(C2C(=O)CC3(CCN(C(=O)C4CC(C)=NO4)CC3)CC2=O)c(C)c1 (centres unmarked) [Compound A187] | 5 (5=80-100%) | 5 (5=80-100%) | 5 (5=80-100%) | 5 (5=80-100%) | 4 (4=60-79%) | 5 (5=80-100%) | 5 (5=80-100%) | 5 (5=80-100%) | 5 (5=80-100%) | 5 (5=80-100%) |
| CC#Cc1cc(C)c(C2C(=O)CC3(CCN(C(=O)NC(C)(C)C)CC3)CC2=O)c(OC)c1 [Compound A76] | 5 (5=80-100%) | 5 (5=80-100%) | 5 (5=80-100%) | 5 (5=80-100%) | 5 (5=80-100%) | 5 (5=80-100%) | 5 (5=80-100%) | 5 (5=80-100%) | 5 (5=80-100%) | 5 (5=80-100%) |
| CC#Cc1cc(C)c(C2C(=O)CC3(CCN(C(=O)c4cccc(C(F)(F)F)n4)CC3)CC2=O)c(C)c1 [Compound A91] | 5 (5=80-100%) | 5 (5=80-100%) | 5 (5=80-100%) | 5 (5=80-100%) | 5 (5=80-100%) | 5 (5=80-100%) | 5 (5=80-100%) | 5 (5=80-100%) | 5 (5=80-100%) | 5 (5=80-100%) |
| CC#Cc1cc(C)c(C2C(=O)CC3(CCN(C(=O)COC(C)C)CC3)CC2=O)c(C)c1 [Compound A171] | 5 (5=80-100%) | 5 (5=80-100%) | 5 (5=80-100%) | 5 (5=80-100%) | 5 (5=80-100%) | 5 (5=80-100%) | 5 (5=80-100%) | 5 (5=80-100%) | 5 (5=80-100%) | 5 (5=80-100%) |
| CC#Cc1cc(C)c(C2=C(OC(=O)OC)CC3(CCN(C(=O)NOC)CC3)CC2=O)c(C)c1 [Compound P14] | 5 (5=80-100%) | 5 (5=80-100%) | 5 (5=80-100%) | 5 (5=80-100%) | 5 (5=80-100%) | 5 (5=80-100%) | 5 (5=80-100%) | 5 (5=80-100%) | 5 (5=80-100%) | 5 (5=80-100%) |
| CC#Cc1cc(C)c(C2C(=O)CC3(CCN(C(=O)C4=COCCC4)CC3)CC2=O)c(C)c1 [Compound A175] | 4 (4=60-79%) | 5 (5=80-100%) | 5 (5=80-100%) | 5 (5=80-100%) | 5 (5=80-100%) | 5 (5=80-100%) | 5 (5=80-100%) | 5 (5=80-100%) | 5 (5=80-100%) | 5 (5=80-100%) |
| CC#Cc1cc(C)c(C2C(=O)CC3(CCN(C(=O)c4ccccc4)CC3)CC2=O)c(C)c1 [Compound A7] | 5 (5=80-100%) | 5 (5=80-100%) | 5 (5=80-100%) | 5 (5=80-100%) | 5 (5=80-100%) | 5 (5=80-100%) | 5 (5=80-100%) | 5 (5=80-100%) | 5 (5=80-100%) | 5 (5=80-100%) |
